From paper PMC10611619, “[^99mTc]Tc-PentixaTec: development, extensive pre-clinical evaluation, and first human experience” (European Journal of Nuclear Medicine and Molecular Imaging, 2023)
Where a SMILES comes first, the peptide text is derived from it. Side-chain parts run from the residue outwards. [ ]: non-standard residue; d: D form. The star is where a group is joined. 2Nal = N[C@@H](Cc1ccc2ccccc2c1)C(=O)O; dNMeOrn = CN[C@H](CCCN)C(=O)O; 4Abz = Nc1ccc(C(=O)O)cc1; X1 = NCCNCC(CNCCN)C(=O)*; dDap = NC[C@@H](N)C(=O)O

System: hCXCR4 expressing Chem-1 cells
Experiment: Dual tracer internalization studies with [^125I]FC-131 as internal reference
Format: cell-based, human
Experimental: Dual tracer internalization studies using [^125I]FC-131 as internal reference were conducted in hCXCR4 expressing Chem-1 cells in analogy to a previously established protocol. A detailed assay protocol is provided in the supplementary material section.
On the day prior to the experiment, Chem-1 cells were seeded in 24-well-plates at a density of app. 1·10^5 cells per well. On the day of the experiment, the culture medium was removed and the cells were washed once with 250 µL of unsupplemented medium before being left to equilibrate in 200 µL of assay medium (DMEM/F-12 containing 5% BSA) at 37°C for a minimum of 15 min before the experiment. Cells were then coincubated with the respective ^99mTc-labeled compound of interest (0.2 nM) and [^125I]FC-131 (0.2 nM) in the absence (total binding) or presence (non-specific binding) of 100 µM AMD3100 for different time points up to 120 min at 37°C (n=3 wells, respectively, per time point). Incubation was terminated by placing the plate on an ice pack for app. 1 min and by subsequent removal of the incubation medium. Cells were thoroughly rinsed with 250 µL of HBSS. After washing twice with 250 µL of ice cold acid wash buffer (0.02 M NaOAc buffered with AcOH to pH = 5), cells were lysed with 250 µL of 1 N NaOH. The lysate was tranferred to vials and combined with 250 µL of HBSS used for rinsing the wells. Quantification of the amount of free, acid-releasable and internalized ^99mTc- and ^125I-activity was performed using dual isotope protocol on a WIZARD^2® 2480 automatic γ-Counter (Perkin Elmer, Waltham MA, USA).
All data were corrected for non-specific internalization in the presence of […] AMD3100 and were then normalized to the specific internalization observed of the standard radioligand [^125I]FC-131.

`C[C@@H](NC(=O)[C@@H](CCCNC(=N)N)NC(=O)[C@@H](CN)NC(=O)C(CNCCN)CNCCN)C(=O)Nc1ccc(C(=O)NCCC[C@@H]2C(=O)N[C@@H](CCCNC(=N)N)C(=O)N[C@@H](Cc3ccc4ccccc4c3)C(=O)NCC(=O)N[C@H](Cc3ccc(O)cc3)C(=O)N2C)cc1` [[^99mTc]Tc-N4-L6-CPCR4, [^99mTc]Tc-N4-dap-r-a-Abz-CPCR4, metal not drawn] (cyclo([dY][dNMeOrn]([4Abz-dA-dR-dDap-X1])R[2Nal]G)) was tested, and the “internalized activity in % of total cellular activity” value (2 h) was 97%, the “absolute intracellular tracer accumulation” value (2 h, 37°, 0.2 nM) was ~40 % of added dose and the “Internalization (% of reference)” value (120 min, normalized to specific internalization of [^125I]FC-131, Chem-1 cells) was 694 (120 min) % of reference. For the same molecule, the “internalization area under the curve (AUC)” value (internalization kinetics, Fig. 1) was 3799.
